In one series the test system is HIV-1 (IIIB). Description: Antiviral assay in MT-4 cells (HIV MT-4 antiviral assay). The series is classed as cell-based. The note with it: Human immunodeficiency virus 1, IIIB, MT4, 120 h, HIV-1 (IIIB) in MT-4 cells, 5 days incubation. Put shortly: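 MT-4 cells infected with HIV-1 IIIB (1:250 diluted stock) and exposed to 1:3 serially diluted compound in RPMI with 10% FBS. Viability read by CellTiter-Glo luminescence after 5 days at 37° C; mock-infected cells and 5 μM AZT as controls.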

The nature of series [1]: Cytotoxicity assay in MT-4 cells. The note with it: human, uninfected MT-4 cells, 5 days incubation; read-out: CC50. The series is classed as cell-based, human. Put shortly: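 Infected MT-4 cells (HIV-1 IIIB, fresh 1:250 dilution of concentrated stock) or mock-infected cells exposed to compounds for 5 days at 37 °C. Viability by CellTiter-Glo luminescence; 5 μM AZT positive control, no-drug negative control. Uninfected cells used for cytotoxicity, with 10 μM puromycin as base-level cytotoxicity control.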

The EC50 is the concentration giving half of the maximal effect. A word on the CC50: it is the concentration at which the toxic effect on the cells reaches its halfway point.

Where two headings read alike, the source gives them in different places.

Regarding `CO[C@@H]1CCN2C[C@H](C1)n1cc(C(=O)NCc3c(F)cc(F)cc3F)c(=O)c(O)c1C2=O` [Example 103-1, (5R,7S)-12-hydroxy-5-methoxy-1,11-dioxo-N-(2,4,6-trifluorobenzyl)-1,4,5,6,7,11-hexahydro-3H-2,7-methanopyrido[1,2-a][1,4]diazonine-10-carboxamide], the EC50 in the series on HIV-1 (IIIB) (read-out: EC50) is 0.00897 µM. Also, in series [1], the half-maximal cytotoxic concentration (CC50) at 5 days is greater than 50 µM.

On to `CO[C@H]1CCN2C[C@H](C1)n1cc(C(=O)NCc3c(F)cc(F)cc3F)c(=O)c(O)c1C2=O` [Example 103-2, (5S,7S)-12-hydroxy-5-methoxy-1,11-dioxo-N-(2,4,6-trifluorobenzyl)-1,4,5,6,7,11-hexahydro-3H-2,7-methanopyrido[1,2-a][1,4]diazonine-10-carboxamide], for which the EC50 in the series on HIV-1 (IIIB) (read-out: EC50) was 0.0092 µM. In addition, in series [1], the 50% cytotoxic concentration (CC50) at 5 days was greater than 50 µM.

On to `CCC1(F)CCCN2CC1n1cc(C(=O)NCc3ccc(F)cc3F)c(=O)c(O)c1C2=O` (centres unmarked) [Example 105, N-(2,4-difluorobenzyl)-6-ethyl-6-fluoro-12-hydroxy-1,11-dioxo-1,4,5,6,7,11-hexahydro-3H-2,7-methanopyrido[1,2-a][1,4]diazonine-10-carboxamide], for which the EC50 with HIV-1 (IIIB) (read-out: EC50) amounted to 0.0019 µM. In series [1], the 50% cytotoxic concentration (CC50) at 5 days came out at 22.3 µM.

Turning to `CCC1CCCN2CC1n1cc(C(=O)NCc3ccc(F)cc3F)c(=O)c(O)c1C2=O` (centres unmarked) [Example 106, N-(2,4-difluorobenzyl)-6-ethyl-12-hydroxy-1,11-dioxo-1,4,5,6,7,11-hexahydro-3H-2,7-methanopyrido[1,2-a][1,4]diazonine-10-carboxamide], in the series on HIV-1 (IIIB) (read-out: EC50), the EC50 was found to be 0.00232 µM. Further, in series [1], the cytotoxic concentration (CC50) at 5 days is 6.84 µM.

For `C[C@]1(O)CCN2C[C@H](C1)n1cc(C(=O)NCc3c(F)cc(F)cc3F)c(=O)c(O)c1C2=O` [Example 107-1, (5S,7S)-5,12-dihydroxy-5-methyl-1,11-dioxo-N-(2,4,6-trifluorobenzyl)-1,4,5,6,7,11-hexahydro-3H-2,7-methanopyrido[1,2-a][1,4]diazonine-10-carboxamide], the concentration giving a half-maximal response (EC50) in the series on HIV-1 (IIIB) (read-out: EC50) stood at 0.0151 µM. Moreover, the CC50 at 5 days in series [1] was greater than 50 µM.

`C[C@@]1(O)CCN2C[C@H](C1)n1cc(C(=O)NCc3c(F)cc(F)cc3F)c(=O)c(O)c1C2=O` [Example 107-2, (5R,7S)-5,12-dihydroxy-5-methyl-1,11-dioxo-N-(2,4,6-trifluorobenzyl)-1,4,5,6,7,11-hexahydro-3H-2,7-methanopyrido[1,2-a][1,4]diazonine-10-carboxamide]: the EC50 in the series with HIV-1 (IIIB) (read-out: EC50) stood at 0.0121 µM. Besides, the CC50 at 5 days in series [1] was greater than 50 µM.

For the molecule `C[C@@]1(F)CCN2C[C@H](C1)n1cc(C(=O)NCc3c(F)cc(F)cc3F)c(=O)c(O)c1C2=O` [Example 115-2, (5R,7S)-5-fluoro-12-hydroxy-5-methyl-1,11-dioxo-N-(2,4,6-trifluorobenzyl)-1,4,5,6,7,11-hexahydro-3H-2,7-methanopyrido[1,2-a][1,4]diazonine-10-carboxamide], the concentration giving a half-maximal response (EC50) in the series with HIV-1 (IIIB) (read-out: EC50) amounted to 0.00258 µM. Besides, the 50% cytotoxic concentration (CC50) at 5 days in series [1] was 28.1 µM.

Consider `CC1CCN2C[C@H](C1)n1cc(C(=O)NCc3c(F)cc(F)cc3F)c(=O)c(O)c1C2=O` (stereo partly drawn) [Example 124, (7S)-12-hydroxy-5-methyl-1,11-dioxo-N-(2,4,6-trifluorobenzyl)-1,4,5,6,7,11-hexahydro-3H-2,7-methanopyrido[1,2-a][1,4]diazonine-10-carboxamide], for which, in the series on HIV-1 (IIIB) (read-out: EC50), the EC50 stood at 0.00279 µM. Moreover, the CC50 at 5 days in series [1] amounted to 15.4 µM.

On to `O=C(NCc1cccc(Cl)c1F)c1cn2c(c(O)c1=O)C(=O)N1CCCC[C@H]2C1` [Example 126, (7S)—N-(3-chloro-2-fluorobenzyl)-12-hydroxy-1,11-dioxo-1,4,5,6,7,11-hexahydro-3H-2,7-methanopyrido[1,2-a][1,4]diazonine-10-carboxamide], for which, in the series with HIV-1 (IIIB), the EC50 was 0.00475 µM. In series [1], the half-maximal cytotoxic concentration (CC50) at 5 days stood at 15.4 µM.

`C[C@@]1(F)CC[C@H]2CN(C1)C(=O)c1c(O)c(=O)c(C(=O)NCc3c(F)cc(F)cc3F)cn12` [Example 132-1, (4R,7S)-4-fluoro-12-hydroxy-4-methyl-1,11-dioxo-N-(2,4,6-trifluorobenzyl)-1,4,5,6,7,11-hexahydro-3H-2,7-methanopyrido[1,2-a][1,4]diazonine-10-carboxamide]: in the series on HIV-1 (IIIB) (read-out: EC50), the EC50 is 0.00883 µM. The cytotoxic concentration (CC50) at 5 days in series [1] was greater than 50 µM.

Turning to `C[C@]1(F)CC[C@H]2CN(C1)C(=O)c1c(O)c(=O)c(C(=O)NCc3c(F)cc(F)cc3F)cn12` [Example 132-2, (4S,7S)-4-fluoro-12-hydroxy-4-methyl-1,11-dioxo-N-(2,4,6-trifluorobenzyl)-1,4,5,6,7,11-hexahydro-3H-2,7-methanopyrido[1,2-a][1,4]diazonine-10-carboxamide], in the series with HIV-1 (IIIB) (read-out: EC50), the EC50 came to 0.00278 µM. Further, the 50% cytotoxic concentration (CC50) at 5 days in series [1] came to 25.7 µM.

Consider `CC1=CC[C@H]2CN(C1)C(=O)c1c(O)c(=O)c(C(=O)NCc3c(F)cc(F)cc3F)cn12` [Example 132-3, (7S)-12-hydroxy-4-methyl-1,11-dioxo-N-(2,4,6-trifluorobenzyl)-1,6,7,11-tetrahydro-3H-2,7-methanopyrido[1,2-a][1,4]diazonine-10-carboxamide], for which, in the series on HIV-1 (IIIB) (read-out: EC50), the EC50 was determined as 0.00214 µM. Moreover, in series [1], the 50% cytotoxic concentration (CC50) at 5 days came to 24.1 µM.

As for `O=C(NCc1c(F)cc(F)cc1F)c1cn2c(c(O)c1=O)C(=O)N1CCc3cc(Cl)ccc3[C@H]2C1` [Example 136-1, (13S)-10-chloro-4-hydroxy-3,5-dioxo-N-(2,4,6-trifluorobenzyl)-3,5,8,13-tetrahydro-7H-6,13-methanobenzo[g]pyrido[1,2-a][1,4]diazonine-2-carboxamide], the EC50 in the series with HIV-1 (IIIB) (read-out: EC50) amounted to 0.0399 µM. Further, the CC50 at 5 days in series [1] was 12.4 µM.

Regarding `O=C(NCc1ccc(F)c(Cl)c1F)c1cn2c(c(O)c1=O)C(=O)N1Cc3cc(F)c(F)cc3C[C@H]2C1` [Example 139-2, (6S)—N-(3-chloro-2,4-difluorobenzyl)-9,10-difluoro-1-hydroxy-2,14-dioxo-2,7,12,14-tetrahydro-6H-6,13-methanobenzo[f]pyrido[1,2-a][1,4]diazonine-3-carboxamide], the concentration for a half-maximal effect (EC50) with HIV-1 (IIIB) (read-out: EC50) stood at 0.00911 µM. In series [1], the CC50 at 5 days is greater than 50 µM.

`O=C(NCc1ccc(F)cc1F)c1cn2c(c(O)c1=O)C(=O)N1CCc3cc(Cl)ccc3[C@H]2C1` [Example 140-1, (13S)-10-chloro-N-(2,4-difluorobenzyl)-4-hydroxy-3,5-dioxo-3,5,8,13-tetrahydro-7H-6,13-methanobenzo[g]pyrido[1,2-a][1,4]diazonine-2-carboxamide]: the EC50 in the series on HIV-1 (IIIB) (read-out: EC50) came out at 0.0241 µM. Besides, the cytotoxic concentration (CC50) at 5 days in series [1] worked out at 14.6 µM.

`O=C(NCc1cccc(Cl)c1F)c1cn2c(c(O)c1=O)C(=O)N1Cc3cc(F)c(F)cc3C[C@H]2C1` [Example 143-2, (6S)—N-(3-chloro-2-fluorobenzyl)-9,10-difluoro-1-hydroxy-2,14-dioxo-2,7,12,14-tetrahydro-6H-6,13-methanobenzo[f]pyrido[1,2-a][1,4]diazonine-3-carboxamide]: in the series with HIV-1 (IIIB) (read-out: EC50), the concentration giving a half-maximal response (EC50) came to 0.0128 µM. Besides, the cytotoxic concentration (CC50) at 5 days in series [1] was greater than 50 µM.

Consider `O=C(NCc1ccc(F)cc1Cl)c1cn2c(c(O)c1=O)C(=O)N1CCCC[C@H]2C1` [Example 152, (7S)—N-(2-chloro-4-fluoro-benzyl)-12-hydroxy-1,11-dioxo-1,4,5,6,7,11-hexahydro-3H-2,7-methanopyrido[1,2-a][1,4]diazonine-10-carboxamide], for which the EC50 with HIV-1 (IIIB) (read-out: EC50) came out at 0.00405 µM. Further, in series [1], the CC50 at 5 days was found to be 12 µM.

Take `O=C(NCc1ccc(Cl)cc1Cl)c1cn2c(c(O)c1=O)C(=O)N1CCCC[C@H]2C1` [Example 153, (7S)—N-(2,4-dichlorobenzyl)-12-hydroxy-1,11-dioxo-1,4,5,6,7,11-hexahydro-3H-2,7-methanopyrido[1,2-a][1,4]diazonine-10-carboxamide]: the EC50 with HIV-1 (IIIB) (read-out: EC50) worked out at 0.0298 µM. Also, the CC50 at 5 days in series [1] turned out to be 5.61 µM.

In the case of `O=C(NCc1c(F)cc(F)cc1F)c1cn2c(c(O)c1=O)C(=O)N1CCSC[C@@H]2C1` [Example 155-1, (7S)-12-hydroxy-1,11-dioxo-N-(2,4,6-trifluorobenzyl)-1,3,4,6,7,11-hexahydro-2,7-methanopyrido[1,2-d][1,4,7]thiadiazonine-10-carboxamide], the 50% effective concentration (EC50) with HIV-1 (IIIB) (read-out: EC50) worked out at 0.00305 µM. Besides, the CC50 at 5 days in series [1] turned out to be 39.5 µM.

As to `O=C(NCc1c(F)cc(F)cc1F)c1cn2c(c(O)c1=O)C(=O)N1CCSC[C@H]2C1` [Example 155-2, (7R)-12-hydroxy-1,11-dioxo-N-(2,4,6-trifluorobenzyl)-1,3,4,6,7,11-hexahydro-2,7-methanopyrido[1,2-d][1,4,7]thiadiazonine-10-carboxamide], the EC50 in the series with HIV-1 (IIIB) (read-out: EC50) is 0.00443 µM. In series [1], the 50% cytotoxic concentration (CC50) at 5 days is greater than 41.3 µM.

For `O=C(NCc1ccccc1)c1cn2c(c(O)c1=O)C(=O)N1CCCC[C@H]2C1` [Example 167, (7S)—N-benzyl-12-hydroxy-1,11-dioxo-1,4,5,6,7,11-hexahydro-3H-2,7-methanopyrido[1,2-a][1,4]diazonine-10-carboxamide], the EC50 in the series on HIV-1 (IIIB) (read-out: EC50) is 0.00323 µM. Besides, the CC50 at 5 days in series [1] came to 18.7 µM.

On to `C[C@H]1CCCN2C[C@H]1n1cc(C(=O)NCc3c(F)cc(F)cc3F)c(=O)c(O)c1C2=O` [Example 170, (6S,7S)-12-hydroxy-6-methyl-1,11-dioxo-N-(2,4,6-trifluorobenzyl)-1,4,5,6,7,11-hexahydro-3H-2,7-methanopyrido[1,2-a][1,4]diazonine-10-carboxamide], for which, in the series on HIV-1 (IIIB) (read-out: EC50), the half-maximal effective concentration (EC50) was determined as 0.00121 µM. In addition, the CC50 at 5 days in series [1] came out at 9.86 µM.

These data come from patent publication US12227520B2 (priority 2019, dated 2025).
